Literature values as cited in US11259516B2, “Method and apparatus for capsular delivery to plants” (priority 2017, dated 2022).

Columns and labels:
Parameters in all cases: key: X indicates that the given herbicide is suitable for controlling the given weed
Details in all cases: cited from earlier work
[1] = tested on: Acacia spp (Wattles)
[2] = tested on: Vachellia nilotica (Prickly acacia)
[3] = tested on: Vachellia famesiana (Mimosa bush)
[4] = tested on: Melalauca spp
[5] = tested on: Calotropis procera (Rubber bush)
[6] = tested on: Eremophila mitchellii (False sandalwood)
[7] = tested on: Cryptostegia grandiflora (Rubber vine)
[8] = tested on: Planchonia careya (Cocky apple)
[9] = tested on: Lantana camara (Lantana)
[10] = tested on: Mimosa pigra (Mimosa)
[11] = tested on: Atalaya hemiglauca (Whitewood)
[12] = tested on: Parkinsonia aculeata (Parkinsonia)
[13] = tested on: Lycium ferocissium (African boxthom)

Measured: suitability of herbicide for control of weed

CNC(=O)N(C)c1nnc(C(C)(C)C)s1 [Tebuthiuron]
X: all assays above
